Source: patent US5837728A, “9-cis retinoic acid esters and amides and uses thereof” (priority 1995, dated 1998)
Entries after “also recorded” stand apart in the source; their conditions may differ. Like-named read-outs stand apart in the source and are kept apart here.

Tests used:
[1] = test system: skin (inner forearm, cheek); assay: Topical assay for comparative dermal irritation in human subjects; type: in vivo, human (patients); details: for Irritant reactions, inner forearm: first test, 0.025% solution; for Irritant reactions, inner forearm / Irritant reaction, inner forearm: twice daily for ten days; for Irritant reaction, inner forearm: second test, one subject of four reacted; for Irritant reaction, inner forearm / Irritation of the cheeks: 0.075% solution; for Irritation of the cheeks: third test, twice daily, six days
Protocol: 2-(9-cis-retinoyloxy)-4-methoxyacetophenone is evaluated in a study of its potential to produce dermal irritation. Comparisons are made of tretinoin, isotretinoin, 2-(9-cis-retinoyloxy)-4-methoxyacetophenone, and the vehicle solution.
In the first test, four solutions are used. The control consists of vehicle solution, namely a solution of 60% by volume ethanol and 40% by volume polyethylene glycol. The other three solutions are 0.025% solutions of tretinoin, isotretinoin, or 2-(9-cis-retinoyloxy)-4-methoxyacetophenone in 60% by volume ethanol and 40% by volume polyethylene glycol. Four patients paint two saturated cotton swabs of each of the four solutions on four different areas of the inner forearm, twice daily for ten days.
In the second test, four other solutions are used. The control consists of vehicle solution, namely a solution of 90% by volume ethanol and 10% by volume polyethylene glycol. The other three solutions are 0.075% solutions of tretinoin, isotretinoin, or 2-(9-cis-retinoyloxy)-4-methoxyacetophenonein 90% by volume ethanol and 10% by volume polyethylene glycol. Four patients paint two saturated cotton swabs of each of the four solutions on four different areas of the inner forearm, twice daily for ten days. Only one subject experiences an irritant reaction. […] By day nine, both areas are still reacting, the tretinoin area more intensely than the isotretinoin area. There is no reaction in either the 2-(9-cis-retinoyloxy)-4-methoxyacetophenone or the control areas.
In the third test, three solutions are used. The three solutions are 0.075% solutions of tretinoin, isotretinoin, or 2-(9-cis-retinoyloxy)-4-methoxyacetophenone in 90% by volume ethanol and 10% by volume polyethylene glycol. Four patients paint two saturated cotton swabs of the 2-(9-cis-retinoyloxy)-4-methoxyacetophenone solution twice daily on one cheek of their faces. To the other cheek they apply two saturated cotton swabs of either tretinoin or isotretinoin.
The tests are carried out in double-blind fashion, that is, neither the subjects nor the investigator know the contents of the solutions during the study.
Clinical assessments are made daily of the subjects cheeks. All subjects develop irritant reactions by the third or fourth day of the study.

[2] = test system: pseudocomedone (utriculus) of the rhino mouse; assay: Topical rhino mouse pseudocomedone (utriculus) reduction assay; type: in vivo; set-up: Utriculus reduction (Table 1) / Utriculus reduction (Table 3): key to the marks not given beside the values; details: for Utriculus reduction (Table 1): 0.1% concentration, once daily 5 days/week for two weeks; for Utriculus reduction (Table 3): concentration 0.1 (unit not given); for Utriculus Reduction (Table 7): two weeks
Protocol: A topical assay to test for pseudocomedone (utriculus) reduction in the rhino mouse is conducted.
Each test compound and a vehicle control is applied topically to the dorsal trunk of the rhino mouse. The utriculus diameters are measured with a ocular micrometer. […] Kligman, et al., The Effect on Rhino Mouse Skin of Agents which Influence Keratinization and Exfoliation, J. Invest. Derm. […] Van Scott, Experimental Animal Integumental Models for Screening Potential Dermatologic Drugs, In Pharmacology of the Skin, eds. […] Mann, Hair Loss and Cyst Formation in Hairless and Rhino Mutant Mice, Anat. Rec. […] Mezick, et al., Topical and Systemic Effects of Retinoids on Horn-Filled Utriculus Size in the Rhino Mouse. A Model to Quantify Antikeratinizing Effects of Retinoids, J. Invest. Derm. […] Mezick, et al., Anti-Acne Activity of Retinoids in the Rhino Mouse, In Models in Dermatology, eds.
(§1) The dorsal trunk of the rhino mouse is the test site. Each test compound is dissolved in alcohol:propylene glycol (70:30, v:v) or other suitable vehicle and topically applied (0.1 ml) to the dorsal trunk once daily, five consecutive days/week for two weeks. Also, administration may be oral (p.o.) in a suitable vehicle. Following treatment, the animals are sacrificed by cervical dislocation. The treated dorsal trunk skin is removed from the animal and placed into 0.5% acetic acid for up to 18 hours at approximately 4° C. After this, the epidermis with the acne cysts is separated from the underlying dermis. The sheets of epidermis are processed by routine methods to permanent whole mounts for microscopic examination. Also, full-thickness samples may be taken, stained (H&E), and examined by light microscopy.
The utriculus diameters are measured with an ocular micrometer to compare effects of test compounds to vehicle control and/or reference compound on cyst reduction. Light microscopy is used to determine effects on cell differentiation.
Another topical assay is conducted following the procedure described above.
Each test compound and a vehicle control was applied topically to the dorsal trunk of the rhino mouse. The utriculus diameters are measured with a ocular micrometer. […] Kligman, et al., J. Invest. […] Van Scott, Pharmacology of the Skin, eds. […] Mann, Anat. […] Mezick, et al, J. Invest. […] Mezick et al., Models in Dermatology, eds.
as §1, with “(70:30,v:v)” for “(70:30, v:v)”, “weeks.” for “weeks. Also, administration may be oral (p.o.) in a suitable vehicle.”, “"acne cysts"” for “acne cysts”, “are” for “may be”, “(H&E)” for “(H&E),”, “microscope.” for “microscopy.”

[3] = test system: ultraviolet damaged skin of hairless mice; details: topical tretinoin, several weeks; cited from earlier work
[4] = test system: Human neonatal foreskin fibroblasts; assay: Growth of human neonatal foreskin fibroblasts (cell number); type: cell-based; details: two days
Source text: Human neonatal foreskin keratinocytes and human neonatal foreskin fibroblasts were isolated and grown in monlayer culture. Culture medium for keratinocytes was Keratincyte Growth Medium (KGM) from Clonetics, Inc., San Diego. Calif. The culture medium for fibroblasts was Dulbecco's Modified Eagle's Medium (DMEM) supplemented with non-essential amino acids and 10% fetal bovine serum. The culture medium was obtained from GIBCO, Grand Island, N.Y. and the FBS was from Hyclone Labs, Inc., Logan, Utah.
Cells at passage 2-4 were plated in wells of a 24 well dish at approximately 5×10^4 cells per well in their respective culture medium. Incubation was at 37° C. with 5% CO2. After the cells attached and spread overnight, they were washed two times in serum-free keratincyte basal medium (KBM) and incubated in 1 ml of KBM or in 1 ml of KGM. Compound IV was added in varying concentrations to the wells. All-trans-retinoic acid (or no treatment) was added to control wells. The cells were incubated for an additional two days for fibroblasts and three days for keratinocytes, and were then harvested and counted. The effect of IV and of the controls are shown for both cell types in Tables 9 and 10: […]

[5] = test system: corneal epithelial wounds; details: cited from earlier work

Row | SMILES | Irritant reactions, inner forearm [1] | Irritant reaction, inner forearm [1] | Irritation of the cheeks [1] | Utriculus reduction (Table 1) [2] | Utriculus reduction (Table 3) [2] | Repair of ultraviolet damaged skin [3] | Number of fibroblasts ([4]; 0.25 μg/ml) | Number of fibroblasts ([4]; 0.5 μg/ml) | Number of fibroblasts ([4]; 1.0 μg/ml) | Increase in the healing rate ([5]; 0.1% tretinoin three times per day) | Increase in the healing rate ([5]; five times a day) | Utriculus Reduction (Table 7) ([2]; dose 0.0005%) | Utriculus Reduction (Table 7) ([2]; dose 0.005%) | Utriculus Reduction (Table 7) ([2]; dose 0.05%)
1 | COc1ccc(C(=O)COC(=O)/C=C(C)/C=C/C=C(C)\C=C\C2=C(C)CCCC2(C)C)cc1 [Compound 2, 2-(9-cis-retinoyloxy)-4'-methoxyacetophenone] | No irritant reactions occur | no reaction | slightly irritated or not irritated at all | +++ | +++ |  |  |  |  |  |  |  |  | 
2 | CC1=C(/C=C/C(C)=C/C=C/C(C)=C/C(=O)O)C(C)(C)CCC1 [all-trans-retinoic acid, reference compound] | No irritant reactions occur | On day two, the tretinoin area begins reacting with redness and peeling | reactions which are so intense with redness and peeling that all subjects discontinue application on or before the sixth day | ++ | ++ | subepidermal repair zone in the treated mice was significantly wider than that in the untreated control group; also recorded: augmented the repair of ultraviolet damaged tissue in the hairless mouse with new blood vessel formation | 10.1 ± 0.2 × 10^4 cells | 10.1 ± 0.1 × 10^4 cells | 9.6 ± 0.1 × 10^4 cells | 21% | 35% | 34.1 | 49.9 | 72.8
